From ChEMBL document CHEMBL1201862, “PubChem BioAssay data set” (2004)
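96-well plates; 48 h exposure; 5 concentrations. Endpoints by linear interpolation between flanking doses. Not reached: highest tested concentration assigned. GI50: concentration for 50% inhibition of growth.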 Activity calls are given as the source filed them. No stated cut-off is given here; in the data, active = GI50 up to about 1.1 µM and inactive = higher.

Assays:
Assay in all cases: inhibition of tumour cell growth, NCI panel, 48 h
[1] = tested on: SN12C
[2] = tested on: A498
[3] = tested on: K562
[4] = tested on: KM12
[5] = tested on: SK-OV-3
[6] = tested on: HOP-62
[7] = tested on: HL-60
[8] = tested on: T47D
[9] = tested on: U-251
[10] = tested on: UO-31
[11] = tested on: OVCAR-3
[12] = tested on: MCF7
[13] = tested on: MDA-N
[14] = tested on: SK-MEL-28
[15] = tested on: OVCAR-4
[16] = tested on: Malme-3M
[17] = tested on: OVCAR-5
[18] = tested on: COLO 205
[19] = tested on: MOLT-4
[20] = tested on: SNB-75

Measured: GI50

c1ccc(CCN2CCOCC2)nc1
inactive: [1] > 100 µM | [2] > 100 µM | [3] > 100 µM | [4] > 100 µM | [5] > 100 µM | [6] > 100 µM | [7] > 100 µM | [8] > 100 µM | [9] > 100 µM | [10] > 100 µM | [11] > 100 µM | [12] > 100 µM | [13] > 100 µM | [14] > 100 µM | [15] > 100 µM | [16] > 100 µM | [17] > 100 µM | [18] > 100 µM

CCCC1c2c(ccc3ccccc23)Oc2ccc3ccccc3c21
inactive: [1] 65.3 µM | [2] 23.7 µM | [19] 37.6 µM | [4] 39.3 µM | [5] > 100 µM | [20] > 100 µM | [6] > 100 µM | [8] 14.6 µM | [9] 40.2 µM | [10] > 100 µM | [11] 61.4 µM | [12] 15.5 µM | [13] 39.6 µM | [14] 68.4 µM | [15] > 100 µM | [16] 57.3 µM | [17] 54.1 µM | [18] 41.9 µM

COc1cc2c3c4[n+](cc2c(OC)c1OC)CCC4CCC3 (stereo not given)
inactive: [1] > 100 µM | [2] > 100 µM | [19] > 100 µM | [3] 17.9 µM | [4] 47.4 µM | [5] > 100 µM | [6] > 100 µM | [8] 24.9 µM | [9] 53.8 µM | [10] > 100 µM | [11] 46.9 µM | [12] 75.2 µM | [13] > 100 µM | [14] > 100 µM | [15] > 100 µM | [16] 20.4 µM | [17] > 100 µM | [18] 34.7 µM

COc1ccc2c(c1)c1c(n2CCN(C)C)-c2cccc(OC)c2CC1
inactive: [1] 13.7 µM | [2] 19.1 µM | [19] 7.14 µM | [3] 2.02 µM | [4] 11.2 µM | [5] 18.2 µM | [20] 5.43 µM | [6] 13.8 µM | [8] 10 µM | [9] 11.6 µM | [10] 14.9 µM | [11] 16.1 µM | [12] 13.2 µM | [13] 11 µM | [14] 14.2 µM | [15] 15.8 µM | [17] 15.7 µM | [18] 6.62 µM

OCc1c2c(cc3c1CC1(C3)Cc3cc4c(c(CO)c3C1)CCC4)CCC2
inactive: [1] 16.9 µM | [2] 16.4 µM | [19] 9.95 µM | [3] 7.35 µM | [4] 16.4 µM | [5] 17.5 µM | [6] 15.6 µM | [7] 5.73 µM | [8] 12.7 µM | [9] 15.8 µM | [10] 1.67 µM | [11] 14.4 µM | [12] 23.5 µM | [13] 15.1 µM | [15] 10.1 µM | [16] 15.3 µM | [17] 19.8 µM | [18] 24.3 µM

CN1C(=O)C(CC=O)(C(C)(C)C)c2ccccc21 (stereo not given)
inactive: [1] > 100 µM | [2] > 100 µM | [19] 56.8 µM | [3] 91.6 µM | [4] > 100 µM | [5] > 100 µM | [20] 99.5 µM | [6] > 100 µM | [7] > 100 µM | [8] 47.1 µM | [9] > 100 µM | [10] 64 µM | [11] > 100 µM | [12] 69.7 µM | [13] 33.3 µM | [14] > 100 µM | [15] > 100 µM | [17] > 100 µM | [18] > 100 µM

CC(C)(C)c1cc2c(c(C(C)(C)C)c1O)CC(=O)O2
inactive: [1] 34.8 µM | [2] 32.1 µM | [19] 35.1 µM | [3] 34 µM | [4] 20.7 µM | [5] 48.8 µM | [6] 30.3 µM | [7] 34.6 µM | [8] 23.2 µM | [9] 41.9 µM | [10] 26.3 µM | [11] 16.6 µM | [12] 35.6 µM | [13] 34.9 µM | [14] 40.6 µM | [15] 27.7 µM | [17] 71.6 µM | [18] 22.2 µM

O=C(NCC(O)COc1ccccc1)c1ccccc1O (stereo not given)
inactive: [1] > 100 µM | [2] > 100 µM | [19] 14.5 µM | [3] > 100 µM | [4] > 100 µM | [5] > 100 µM | [6] > 100 µM | [8] 42.4 µM | [9] > 100 µM | [10] 47.8 µM | [11] > 100 µM | [12] > 100 µM | [13] > 100 µM | [14] > 100 µM | [15] > 100 µM | [16] > 100 µM | [17] > 100 µM | [18] > 100 µM
